{"source": "paper PMC11840605", "about": "“Crystallographic and Thermodynamic Evidence of Negative Coupling in the Flavin-Dependent Tryptophan Halogenases AbeH and BorH” (ACS Omega, 2025)", "key": {"[1]": {"system": "BorH/Trp", "test": "Isothermal titration calorimetry, FAD into BorH preincubated with Trp", "format": "binding, uncultured soil actinomycetes", "protocol": "ITC experiments were performed using a VP-ITC isothermal titration calorimeter (MicroCal) in 20 mM HEPES pH 7.5, 350 mM NaCl, 1 mM ethylenediamine tetraacetic acid (EDTA) and 15% (v/v) glycerol. Solutions of AbeH, BorH, FAD (Chem-Implex), and Trp (Acros Organics) were prepared in the same buffer and degassed under vacuum at 30 °C for 20 min before loading in the syringe or cell. To analyze formation of binary complexes, AbeH or BorH was placed inside the cell, and ligand (FAD or Trp) was injected. For ternary complex titration, one ligand was preincubated with the macromolecule for 30 min at 30 °C to form binary complexes of AbeH/FAD, AbeH/Trp, BorH/FAD, and BorH/Trp before titrating with the second ligand. […] Formation of FADH2 by sodium dithionite was verified using absorbance and fluorescence spectrophotometry.\nITC experiments were performed with reference power set to 10 μcal/s and Milli-Q water in the reference cell. […] Heats of dilution for all titrants were measured by titrating ligand into buffer for binary complex titrations, and by titrating ligand into a solution containing the other ligand but no protein for ternary complex titration. […]\nTitrations were analyzed by manually integrating each injection, subtracting the heat of dilution, and carrying out nonlinear least-squares fit of the calorimetric binding data to a one-site model using Origin 7.0 (Origin Lab). […]"}, "[2]": {"molecular_target": "AbeH (uncultured bacterium, UniProt F6LWA5)", "sequence (F6LWA5 entry or part of it)": "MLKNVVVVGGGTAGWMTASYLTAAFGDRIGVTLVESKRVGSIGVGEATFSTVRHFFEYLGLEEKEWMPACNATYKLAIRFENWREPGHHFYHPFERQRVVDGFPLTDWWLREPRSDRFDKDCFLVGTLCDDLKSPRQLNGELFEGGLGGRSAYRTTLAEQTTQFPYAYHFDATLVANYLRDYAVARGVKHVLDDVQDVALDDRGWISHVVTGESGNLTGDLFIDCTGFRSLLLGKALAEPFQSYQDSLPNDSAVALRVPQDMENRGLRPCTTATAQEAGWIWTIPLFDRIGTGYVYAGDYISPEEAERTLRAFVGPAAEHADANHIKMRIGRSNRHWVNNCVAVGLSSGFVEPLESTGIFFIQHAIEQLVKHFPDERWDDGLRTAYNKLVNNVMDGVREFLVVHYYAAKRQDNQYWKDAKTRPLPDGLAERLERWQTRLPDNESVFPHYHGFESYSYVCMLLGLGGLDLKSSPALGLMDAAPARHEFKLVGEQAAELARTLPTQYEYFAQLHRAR", "test": "Quenching of AbeH intrinsic Trp fluorescence upon FAD titration", "parameters": "species or system uncultured soil actinomycetes", "details": "FAD binding to AbeH, 100 nM AbeH", "protocol": "Intrinsic tryptophan fluorescence spectroscopy was used to measure FAD binding to AbeH and BorH in 20 mM HEPES pH 7.7- and 50 mM sodium citrate. FAD was prepared in the same buffer and its concentration was determined spectrophotometrically as described earlier. Fluorescence experiments were performed as described earlier. FAD binding to apo-AbeH or apo-BorH was performed in duplicate with 100 nM fixed AbeH or BorH with variable FAD concentrations up to 30 and 70 μM, respectively. AbeH/FAD binding was monitored using excitation at 295 nm and emission at 328 nm. BorH/FAD binding was monitored using excitation at 290 nm and emission at 326 nm. Inner filter effect corrected fluorescence intensities were plotted against quenched intrinsic tryptophan fluorescence of AbeH and BorH. Data were fitted by nonlinear regression to eq 1 using GraphPad Prism 8.0.\nFigure S9: FAD binding determined by quenching of BorH and AbeH intrinsic Trp fluorescence.\nA. Variable concentrations of FAD (0-70 µM) were incubated with 100 nM BorH and Trp fluorescence was measured with excitation at 290 nm and emission at 326 nm. […]\nB. Variable concentrations of FAD (0-30 µM) were incubated with 100 nM AbeH and Trp fluorescence was measured […] with excitation at 295 nm and emission at 328 nm. […]"}}, "note": "“And” between values parts separate entries of the source, which are not always exact repeats. Equal values may be shown once. “Also recorded” adds a separate entry of the source."}
{"compound": "Cc1cc2nc3c(=O)[nH]c(=O)nc-3n(C[C@H](O)[C@H](O)[C@H](O)COP(=O)(O)OP(=O)(O)OC[C@H]3O[C@@H](n4cnc5c(N)ncnc54)[C@H](O)[C@@H]3O)c2cc1C", "note": "[FAD]", "values": [{"measurement": "Binding of FAD to preincubated BorH/Trp by ITC, in words", "setting": "[1]; 0.63 mM FAD into 10 μM BorH preincubated with 18 mM Trp (95% saturated)", "result": "No binding was observed; also recorded: failed to detect any heat of binding; also recorded: no evidence of binding"}, {"measurement": "KD, FAD binding to BorH/Trp, ITC", "setting": "[1]; BorH preincubated with Trp", "result": "no binding"}, {"measurement": "Kd", "setting": "[2]", "result": "0.96 µM and 1 µM"}]}
